The record followed here is patent US12207655B2, “Protoporphyrin IX derivatives and use thereof to improve the health of plants” (priority 2019, dated 2025).

For assay [1], the system named is Pseudomonas syringae pv. tabaci. Description: Photodynamic control of Pseudomonas syringae pv. tabaci in PBS, colony counts after illumination. The note with it: 30 min dark then 1 hour illumination (about 1000 μmol/m2/s PAR), PBS control 8.7. The class given is cell-based. On the procedure:
In this example, control of the gram-negative bacterial plant pathogen Pseudomonas syringae pv. tabaci with PP IX and modified PP IX was assessed, with and without chelating agents. Treatments were prepared in Phosphate Buffered Saline (PBS) in 96 well plates at desired concentrations. A bacterial suspension was inoculated into the PBS and incubated at 28° C. in the dark for 30 minutes. After 30 minutes, the 96 well plate was placed under illumination for 1 hour (at 21° C.). Following illumination, bacterial suspensions were serially diluted and 10 μL of each dilution is spread uniformly on Tryptic Soy Agar (TSA) plates and placed in the dark in an incubator at 28° C. for 48 hours. After 48 hours, bacterial colonies were counted, and the results were log transformed (log colony forming units (CFU)/mL). The relative inactivation was determined by taking the difference between log CFU (PBS control) and log CFU (treatments). Sample Illumination was provided by LED lights (Heliospectra RX30) emitting about 1000 μmol/m^2/s photosynthetically active radiation (PAR).

The test system of a further assay is Sclerotinia homoeocarpa. As to the kind of experiment: Control of dollar spot fungus: radial growth of fungal plugs on PDA after treatment in PBS, dark vs light. In kind it is cell-based. Particulars: 31 μM + 0.21% BrijO10:ArlasolveDMI (1:4); for Mean Radial Growth: growth between 24 and 48 hours at 21° C; for % Inhibition: relative to non-amended control. On the procedure:
In this example, control of dollar spot fungus (Sclerotinia homoeocarpa) with PP IX and modified PP IX was assessed. Treatments were prepared in Phosphate Buffered Saline (PBS) in 24 well plates (in duplicates for light vs. dark incubation) at desired concentrations. Then, a 5 mm diameter plug of a Sclerotinia homoeocarpa isolate (3 isolates total tested) was inoculated into the PBS and incubated at 21° C. in the dark for 2 hours. After 2 hours, one of the 24 well plates (with isolates in triplicate) was left in the dark and one 24 well plate was placed under illumination for 1 hour (all at […]). Following illumination, fungal plugs were removed from PBS, blotted dry on sterile filter paper and transferred to non-amended Potato Dextrose Agar (PDA). Radial growth of the fungus was monitored daily until the growth of S. homoeocarpa reaches the edge of the Petri-dish. Illumination was provided by LED lights emitting about 1000 μmol/m2/s photosynthetically active radiation (PAR).

Turning to “Protoporphyrin IX disodium salt [PP IX disodium salt]”, the “log CFU/ml” value in assay [1] (10 μM + 5 mM NaEDTA in PBS) was found to be 3.8 log CFU/ml; in assay [1] (10 μM in PBS, no chelating agent), 7.4 log CFU/ml. Moreover, the “Mean Radial Growth” value in the assay on Sclerotinia homoeocarpa (Dark (no light exposure), PBS control 10.1) came out at 10.5; in the assay on Sclerotinia homoeocarpa (Exposed to light for 1 hour (1000 PAR), PBS control 10.2), 0.0. For the same substance, the % Inhibition (usually the relative decrease from the control value, in per cent) in the assay on Sclerotinia homoeocarpa (Dark (no light exposure)) is recorded as −3.8%; in the assay with Sclerotinia homoeocarpa (Exposed to light for 1 hour (1000 PAR)), 100.0%.
